Assay results reported in patent US20070167412A1, “HALOCOMBSTATINS AND METHODS OF SYNTHESIS THEREOF” (ARIZONA BOARD OF REGENTS, priority 2003, published 2007).
Converted amounts (≈) assume the structure as drawn.

Tests used:
Type in all cases: cell-based
Prostate DU-145 = test: human cancer cell growth inhibition, sulforhodamine B assay; settings: Homo sapiens, DU-145; Table I; 48 hours; read-out: Human cancer cell line inhibition (GI50) Prostate DU-145
How it was run: (§1)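 Following the standard NCI SRB assay, cultures were treated for 48 h before trichloracetic acid fixation and dye staining.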

Lung-NSC NCI-H460 = test: as above; settings: Homo sapiens, NCI-H460; Table I; 48 hours; read-out: Human cancer cell line inhibition (GI50) Lung-NSC NCI-H460
How it was run: as §1

CNS SF268 = test: as above; settings: Homo sapiens, SF-268; Table I; 48 hours; read-out: Human cancer cell line inhibition (GI50) CNS SF268
How it was run: as §1

Breast MCF-7 = test: as above; settings: Homo sapiens, MCF7; Table I; 48 hours; read-out: Human cancer cell line inhibition (GI50) Breast adn MCF-7
How it was run: as §1

Pancreas BXPC-3 = test: as above; settings: Homo sapiens, BXPC-3; Table I; 48 hours; read-out: Human cancer cell line inhibition (GI50) Pancreas-a BXPC-3
How it was run: as §1

Colon KM20L2 = test: as above; settings: Homo sapiens, KM-20L2; Table I; 48 hours; read-out: Human cancer cell line inhibition (GI50) Colon KM20L2
How it was run: as §1

Enterococcus faecalis = test: reference broth microdilution susceptibility assay; settings: Table III
How it was run: (§2)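 Broth microdilution susceptibility testing per NCCLS reference methods (M7-A5 for aerobic bacteria, M27-A for yeasts).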

Cryptococcus neoformans = test: reference broth microdilution susceptibility assay; settings: Table III
How it was run: (§3)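 Susceptibility was tested by the reference broth microdilution method. Bacterial strains followed the NCCLS standard for aerobically growing bacteria (M7-A5), and yeasts followed the NCCLS broth dilution reference method for yeasts (M27-A).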

[1] = tested on: Stenotrophomonas maltophilia; test: reference broth microdilution susceptibility assay; settings: Table III
How it was run: as §2

Candida albicans = test: reference broth microdilution susceptibility assay; settings: Table III
How it was run: as §3

Streptococcus pneumoniae = test: reference broth microdilution susceptibility assay; settings: Table III
How it was run: as §2

Staphylococcus aureus = test: reference broth microdilution susceptibility assay; settings: Table III
How it was run: as §2

Enterobacter cloacae = test: reference broth microdilution susceptibility assay; settings: Table III
How it was run: as §2

Micrococcus luteus = test: reference broth microdilution susceptibility assay; settings: Table III
How it was run: as §3

Neisseria gonorrhoeae = test: reference broth microdilution susceptibility assay; settings: Table III
How it was run: as §2

Escherichia coli = test: reference broth microdilution susceptibility assay; settings: Table III
How it was run: as §3

[2] = tested on: human umbilical vein endothelial cells (HUVEC); test: Matrigel cord formation assay; set-up: key: −: No Junctions; +: Few; ++: ˜50% of Control; +++: Same as Control; settings: 24 hours, compared to untreated controls
Procedure: (§4) In vitro Matrigel antiangiogenesis assays were implemented according to the Developmental Therapeutics Program NCI/NIH protocols known to one of skill in the art. Matrigel, a basement membrane matrix, was obtained from BD Biosciences. Growth inhibition and cord formation assays were Conducted using human umbilical vein endothelial cells obtained from GlycoTeCh. HUVEC cells were grown in EGM-2 medium.
An aliquot of sixty microliters was placed in each well of an ice-cold 96-well plate. The plates were then left for 15 minutes at room temperature, then incubated for 30 minutes at 37° C. to permit the matrigel to polymerize. Meanwhile, HUVEC cells were harvested and diluted to a concentration of 2×10^5 cells/ml. A solution of 100 μL containing the compounds to be tested was added next. After 24 hours incubation, pictures were taken for each concentration using an inverted Nikon Diaphot microscope and D100 digital camera. Drug effect was assessed, compared to untreated controls, by measuring the length of cords formed and number ofjunctions.

[3] = tested on: human umbilical vein endothelial cells (HUVEC); test: HUVEC growth inhibition, sulforhodamine B assay; settings: HUVEC
Procedure: as §4
The standard sulforhodamine B assay (see Cancer Cell Line Procedures above) was used to evaluate results using HUVEC cells. IC50 or ED50 (drug concentration causing 50% inhibition) was calculated from the plotted data.

[4] = tested on: human umbilical vein endothelial cells (HUVEC); test: Matrigel cord formation assay; set-up: key to Lengths of Cords: −: No Cords; +: Small; ++: ˜50% of Control; +++: Same as Control; settings: 24 hours, compared to untreated controls
How it was run: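 HUVEC grown in EGM-2, seeded at 2×10^5 cells/ml onto polymerized Matrigel with test compounds. After 24 hours, cord length and junction number imaged and measured relative to untreated controls.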

`COc1ccc(/C=C\c2cc(I)c(OC)c(OC)c2)cc1O` [Compound 14a, 3-Iodo-4,4′,5-trimethoxy-3′-hydroxy-z-stilbene] showed a GI50 (Prostate DU-145) of 0.52 ng/mL (≈ 1.26 nM), a GI50 (Lung-NSC NCI-H460) of 0.19 ng/mL (≈ 0.461 nM) and a GI50 (CNS SF268) of 0.35 ng/mL (≈ 0.849 nM). For the same compound, the GI50 (Breast MCF-7) was 0.22 ng/mL (≈ 0.534 nM), the GI50 (Pancreas BXPC-3) was 110 ng/mL (≈ 267 nM) and the GI50 (Colon KM20L2) was 150 ng/mL (≈ 364 nM). For the same compound, the “Range of minimum inhibitory concentration, Enterococcus faecalis” value (Enterococcus faecalis) was “* (no inhibition at 64 μg/ml)”, the “Range of minimum inhibitory concentration, Cryptococcus neoformans” value (Cryptococcus neoformans) was 32000 to 64000 ng/mL and the “Range of minimum inhibitory concentration, Stenotrophomonas maltophilia” value [1] was “* (no inhibition at 64 μg/ml)”. For the same compound, the “Range of minimum inhibitory concentration, Candida albicans” value (Candida albicans) was “* (no inhibition at 64 μg/ml)”, the “Range of minimum inhibitory concentration, Streptococcus pneumoniae” value (Streptococcus pneumoniae) was 64000 ng/mL and the “Range of minimum inhibitory concentration, Staphylococcus aureus” value (Staphylococcus aureus) was “* (no inhibition at 64 μg/ml)”. For the same compound, the “Range of minimum inhibitory concentration, Enterobacter cloacae” value (Enterobacter cloacae) was “* (no inhibition at 64 μg/ml)”, the “Range of minimum inhibitory concentration, Micrococcus luteus” value (Micrococcus luteus) was 16000 to 32000 ng/mL and the “Range of minimum inhibitory concentration, Neisseria gonorrhoeae” value (Neisseria gonorrhoeae) was 16000 to 32000 ng/mL. For the same compound, the “Range of minimum inhibitory concentration, Escherichia coli” value (Escherichia coli) was “* (no inhibition at 64 μg/ml)”, the Number of junctions ([2]; 0.001 μg/ml) was “+” and the Number of junctions ([2]; 0.01 μg/ml) was “−”. For the same compound, the “Relative % Growth” value ([3]; 0.00001 μg/ml) was 90%, the “Relative % Growth” value ([3]; 0.0001 μg/ml) was 18% and the “Relative % Growth” value ([3]; 0.001 μg/ml) was 14%. The “Relative % Growth” value ([3]; 0.01 μg/ml) was 14%, the GI50 ([3]; Homo sapiens, Table V, read-out: Human Umbilical Vein Endothelial Cell (HUVEC) Inhibition Values (GI50)) was 0.04 ng/mL (≈ 0.097 nM) and the “Lengths of Cords” value ([4]; 0.001 μg/ml) was “+”. For the same compound, the “Lengths of Cords” value ([4]; 0.01 μg/ml) was “−”.
